# Measured values as given in patent publication US12359121B2, “Neutral fluorescent mitochondrial marker as amide derivative, and preparation method and use thereof” (SOOCHOW UNIVERSITY, priority 2021, dated 2025).
# Tested on: not listed separately
# Assay: Ultraviolet-visible absorption and fluorescence emission in chloroform
# Assay type: physicochemical
# Conditions: 10 μM in chloroform
# Experimental: The ultraviolet absorption and fluorescence emission of the dyes prepared above (at a concentration of 10 μM) in chloroform were tested. The horizontal ordinate is the wavelength, and the vertical ordinate is the absorbance and fluorescence intensity, respectively.
# In the ultraviolet-visible absorption spectrum, dye 2a has the maximum absorption at 388 nm; and in the fluorescence spectrum, dye 2a has the highest fluorescence intensity at 457 nm, where the excitation wavelength is 380 nm, and the slit width is 3 nm/1.5 nm. In the ultraviolet-visible absorption spectrum, dye 2b has a maximum absorption wavelength of 386 nm; and in the fluorescence spectrum, dye 2b has a maximum emission wavelength of 459 nm, where the excitation wavelength is 385 nm, and the slit width is 3 nm/1.5 nm. In the ultraviolet-visible absorption spectrum, dye 2c has a maximum absorption wavelength of 385 nm; and in the fluorescence spectrum, dye 2c has a maximum emission wavelength of 455 nm, where the excitation wavelength is 380 nm, and the slit width is 3 nm/1.5 nm. In the ultraviolet-visible absorption spectrum, dye 2d has the maximum absorption at 380 nm; and in the fluorescence spectrum, dye 2d has the highest fluorescence intensity at 457 nm, where the excitation wavelength is 380 nm, and the slit width is 3 nm/1.5 nm. In the ultraviolet-visible absorption spectrum, dye 2e has a maximum absorption wavelength of 385 nm; and in the fluorescence spectrum, dye 2e has a maximum emission wavelength of 458 nm, where the excitation wavelength is 385 nm, and the slit width is 3 nm/1.5 nm. In the ultraviolet-visible absorption spectrum, dye 3a has the maximum absorption at 554 nm; and in the fluorescence spectrum, dye 3a has the highest fluorescence intensity at 604 nm, where the excitation wavelength is 550 nm, and the slit width is 1.5 nm/3 nm. In the ultraviolet-visible absorption spectrum, dye 3b has a maximum absorption wavelength of 552 nm; and in the fluorescence spectrum, dye 3b has a maximum emission wavelength of 597 nm, where the excitation wavelength is 550 nm, and the slit width is 1.5 nm/3 nm. In the ultraviolet-visible absorption spectrum, dye 3c has a maximum absorption wavelength of 552 nm; and in the fluorescence spectrum, dye 3c has a maximum emission wavelength of 621 nm, where the excitation wavelength is 550 nm, and the slit width is 1.5 nm/3 nm. In the ultraviolet-visible absorption spectrum, dye 3d has a maximum absorption wavelength of 551 nm; and in the fluorescence spectrum, dye 3d has a maximum emission wavelength of 607 nm, where the excitation wavelength is 545 nm, and the slit width is 1.5 nm/3 nm. In the ultraviolet-visible absorption spectrum, dye 3e has a maximum absorption wavelength of 553 nm; and in the fluorescence spectrum, dye 3e has a maximum emission wavelength of 585 nm, where the excitation wavelength is 550 nm, and the slit width is 1.5 nm/3 nm. The above UV absorption and fluorescence emission test methods are conventional methods.
row,SMILES,maximum absorption wavelength [nm]
1,CCN(CC)c1ccc2c(C)c(-c3ccc(C(N)=O)cc3)c(=O)oc2c1 [dye 2a],388
2,CCN(CC)c1ccc2c(C)c(-c3ccc(C(=O)NC)cc3)c(=O)oc2c1 [dye 2b],386
3,CCN(CC)c1ccc2c(C)c(-c3ccc(C(=O)N(C)C)cc3)c(=O)oc2c1 [dye 2c],385
4,CCN(CC)c1ccc2c(C)c(-c3ccc4c(c3)CC(=O)N4)c(=O)oc2c1 [dye 2d],380
5,CCN(CC)c1ccc2c(C)c(-c3ccc4c(c3)CCC(=O)N4)c(=O)oc2c1 [dye 2e],385
6,CCN(CC)c1ccc2nc3c4ccc(-c5ccc(C(N)=O)cc5)cc4c(=O)cc-3oc2c1 [dye 3a],554
7,CCN(CC)c1ccc2nc3c4ccc(-c5ccc(C(=O)NC)cc5)cc4c(=O)cc-3oc2c1 [dye 3b],552
8,CCN(CC)c1ccc2nc3c4ccc(-c5ccc(C(=O)N(C)C)cc5)cc4c(=O)cc-3oc2c1 [dye 3c],552
9,CCN(CC)c1ccc2nc3c4ccc(-c5ccc6c(c5)CC(=O)N6)cc4c(=O)cc-3oc2c1 [dye 3d],551
10,CCN(CC)c1ccc2nc3c4ccc(-c5ccc6c(c5)CCC(=O)N6)cc4c(=O)cc-3oc2c1 [dye 3e],553

# Same assay, conditions: 10 μM in chloroform; excitation 380-385 nm, slit 3 nm/1.5 nm (2a-e); excitation 545-550 nm, slit 1.5 nm/3 nm (3a-e)
row,SMILES,maximum emission wavelength (highest fluorescence intensity) [nm]
1,CCN(CC)c1ccc2c(C)c(-c3ccc(C(N)=O)cc3)c(=O)oc2c1 [dye 2a],457
2,CCN(CC)c1ccc2c(C)c(-c3ccc(C(=O)NC)cc3)c(=O)oc2c1 [dye 2b],459
3,CCN(CC)c1ccc2c(C)c(-c3ccc(C(=O)N(C)C)cc3)c(=O)oc2c1 [dye 2c],455
4,CCN(CC)c1ccc2c(C)c(-c3ccc4c(c3)CC(=O)N4)c(=O)oc2c1 [dye 2d],457
5,CCN(CC)c1ccc2c(C)c(-c3ccc4c(c3)CCC(=O)N4)c(=O)oc2c1 [dye 2e],458
6,CCN(CC)c1ccc2nc3c4ccc(-c5ccc(C(N)=O)cc5)cc4c(=O)cc-3oc2c1 [dye 3a],604
7,CCN(CC)c1ccc2nc3c4ccc(-c5ccc(C(=O)NC)cc5)cc4c(=O)cc-3oc2c1 [dye 3b],597
8,CCN(CC)c1ccc2nc3c4ccc(-c5ccc(C(=O)N(C)C)cc5)cc4c(=O)cc-3oc2c1 [dye 3c],621
9,CCN(CC)c1ccc2nc3c4ccc(-c5ccc6c(c5)CC(=O)N6)cc4c(=O)cc-3oc2c1 [dye 3d],607
10,CCN(CC)c1ccc2nc3c4ccc(-c5ccc6c(c5)CCC(=O)N6)cc4c(=O)cc-3oc2c1 [dye 3e],585

# Tested on: mitochondria in HeLa cells
# Assay: Colocalization imaging with red mitochondrial marker Mito Tracker Red CMXRos, laser confocal microscope
# Assay type: cell-based
# Conditions: 2 μM, blue channel
# Experimental: To test the fluorescent labeling ability of Compound 2a compared with commercial mitochondrial markers, dye 2a was formulated into a mother liquor in DMSO (dimethyl sulfoxide), and then added to a conventional cell culture medium to give a concentration of dye 2a in the cell culture medium of 2 μM. HeLa cells were co-cultured for 10 min in an incubator at saturated humidity, 37° C., and 5% CO2 (the experiment was same below). The red mitochondrial marker Mito Tracker© Red CMXRos (100 nm) was added, and the cells were co-incubated for another 10 min, washed three times with a PBS buffer, and imaged under a laser confocal microscope. In the blue channel, light of 405 nm was used for excitation, and a fluorescence signal in the range of 410-500 nm was collected; and in the red channel, light of 561 nm was used for excitation, and a fluorescence signal in the range of 570-750 nm was collected.
# The experiment method with dye 2b (2 μM), dye 2c (2 μM), dye 2d (2 μM), and dye 2e (2 μM) was the same with that with dye 2a, except that dye 2a was replaced.
row,SMILES,mitochondria labeling ability
1,CCN(CC)c1ccc2c(C)c(-c3ccc(C(N)=O)cc3)c(=O)oc2c1 [dye 2a],has mitochondria labeling ability
2,CCN(CC)c1ccc2c(C)c(-c3ccc(C(=O)NC)cc3)c(=O)oc2c1 [dye 2b],have mitochondria labeling ability
3,CCN(CC)c1ccc2c(C)c(-c3ccc(C(=O)N(C)C)cc3)c(=O)oc2c1 [dye 2c],have mitochondria labeling ability
4,CCN(CC)c1ccc2c(C)c(-c3ccc4c(c3)CC(=O)N4)c(=O)oc2c1 [dye 2d],have mitochondria labeling ability
5,CCN(CC)c1ccc2c(C)c(-c3ccc4c(c3)CCC(=O)N4)c(=O)oc2c1 [dye 2e],have mitochondria labeling ability

# Same assay, conditions: 2 μM, versus Mito Tracker Red CMXRos (100 nm)
row,SMILES,colocalization coefficient
1,CCN(CC)c1ccc2c(C)c(-c3ccc(C(N)=O)cc3)c(=O)oc2c1 [dye 2a],0.88
2,CCN(CC)c1ccc2c(C)c(-c3ccc(C(=O)NC)cc3)c(=O)oc2c1 [dye 2b],0.94
3,CCN(CC)c1ccc2c(C)c(-c3ccc(C(=O)N(C)C)cc3)c(=O)oc2c1 [dye 2c],0.88
4,CCN(CC)c1ccc2c(C)c(-c3ccc4c(c3)CC(=O)N4)c(=O)oc2c1 [dye 2d],0.92
5,CCN(CC)c1ccc2c(C)c(-c3ccc4c(c3)CCC(=O)N4)c(=O)oc2c1 [dye 2e],0.91

# Tested on: not listed separately
# Assay: Photo stability under iodine tungsten lamp irradiation (residual absorptivity)
# Assay type: physicochemical
# Conditions: 10 μM in acetonitrile; 6 hrs continuous irradiation, 500 W iodine tungsten lamp, 25 cm
# Experimental: The photo stability of dyes 2a-2e, and 3a-e (with a concentration of 10 μM) prepared above was tested. Corresponding weights of dyes 2a-2e and 3a-e and their references coumarin and Nile red were weighed, and dissolved in acetonitrile (at a concentration of 10 μM) respectively. All the samples were irradiated with a Philips iodine tungsten lamp (500 W), and the distance between the lamp and the sample was set to 25 cm. An 8 cm-thick NaNO2 (60 g·L^−1) cold trap was positioned between the lamp and the sample, to eliminate heat and short-wavelength light. The irradiation was continued for 6 hrs, during which the ultraviolet fluorescence was tested every half an hour. After 6 hrs, the light stability was measured by residual absorptivity calculated based on the change in the absorption intensity at various times before and after the irradiation. […] The residual absorptivity of dyes 2a-e, and 3a-e is 2a: 93%, 2b: 92%, 2c: 95%, 2d: 91%, 2e: 97%, 3a: 93%, 3b: 92%, 3c: 94%, 3d: 93%, 3e: 92%. It can be seen that dyes 2a-2e and 3a-e have higher photo stability.
row,SMILES,residual absorptivity [%]
1,"CCN(CC)c1ccc2nc3c4ccccc4c(=O)cc-3oc2c1 [Nile Red, Nile red, reference compound]",97
2,"O=c1ccc2ccccc2o1 [coumarin, reference compound]",94
3,CCN(CC)c1ccc2c(C)c(-c3ccc(C(N)=O)cc3)c(=O)oc2c1 [dye 2a],93
4,CCN(CC)c1ccc2c(C)c(-c3ccc(C(=O)NC)cc3)c(=O)oc2c1 [dye 2b],92
5,CCN(CC)c1ccc2c(C)c(-c3ccc(C(=O)N(C)C)cc3)c(=O)oc2c1 [dye 2c],95
6,CCN(CC)c1ccc2c(C)c(-c3ccc4c(c3)CC(=O)N4)c(=O)oc2c1 [dye 2d],91
7,CCN(CC)c1ccc2c(C)c(-c3ccc4c(c3)CCC(=O)N4)c(=O)oc2c1 [dye 2e],97
8,CCN(CC)c1ccc2nc3c4ccc(-c5ccc(C(N)=O)cc5)cc4c(=O)cc-3oc2c1 [dye 3a],93
9,CCN(CC)c1ccc2nc3c4ccc(-c5ccc(C(=O)NC)cc5)cc4c(=O)cc-3oc2c1 [dye 3b],92
10,CCN(CC)c1ccc2nc3c4ccc(-c5ccc(C(=O)N(C)C)cc5)cc4c(=O)cc-3oc2c1 [dye 3c],94
11,CCN(CC)c1ccc2nc3c4ccc(-c5ccc6c(c5)CC(=O)N6)cc4c(=O)cc-3oc2c1 [dye 3d],93
12,CCN(CC)c1ccc2nc3c4ccc(-c5ccc6c(c5)CCC(=O)N6)cc4c(=O)cc-3oc2c1 [dye 3e],92

# Tested on: mitochondria in HeLa cells
# Assay: Colocalization imaging with green mitochondrial marker Mito Tracker Green FM, laser confocal microscope
# Assay type: cell-based
# Conditions: 2 μM, red channel
# Experimental: Dye 3a was formulated into a mother liquor in DMSO (dimethyl sulfoxide), and then added to a conventional cell culture medium to give a concentration of dye 3a in the cell culture medium of 2 μM. HeLa cells were co-cultured for 10 min in an incubator at saturated humidity, 37° C., and 5% CO2 (the experiment was same below). The green mitochondrial marker Mito Tracker® Green FM (100 nm) was added, and the cells were co-incubated for another 10 min, washed three times with a PBS buffer, and imaged under a laser confocal microscope. In the red channel, light of 561 nm was used for excitation, and a fluorescence signal in the range of 570-750 nm was collected. In the green channel, light of 488 nm was used for excitation, and a fluorescence signal in the range of 500-550 nm was collected.
# The experiment method with dye 3b (2 μM), dye 3c (2 μM), dye 3d (2 μM), and dye 3e (2 μM) was the same with that with dye 3a, except that dye 3a was replaced.
row,SMILES,mitochondria labeling ability
1,CCN(CC)c1ccc2nc3c4ccc(-c5ccc(C(N)=O)cc5)cc4c(=O)cc-3oc2c1 [dye 3a],has mitochondria labeling ability
2,CCN(CC)c1ccc2nc3c4ccc(-c5ccc(C(=O)NC)cc5)cc4c(=O)cc-3oc2c1 [dye 3b],has mitochondria labeling ability
3,CCN(CC)c1ccc2nc3c4ccc(-c5ccc(C(=O)N(C)C)cc5)cc4c(=O)cc-3oc2c1 [dye 3c],has mitochondria labeling ability
4,CCN(CC)c1ccc2nc3c4ccc(-c5ccc6c(c5)CC(=O)N6)cc4c(=O)cc-3oc2c1 [dye 3d],has mitochondria labeling ability
5,CCN(CC)c1ccc2nc3c4ccc(-c5ccc6c(c5)CCC(=O)N6)cc4c(=O)cc-3oc2c1 [dye 3e],has mitochondria labeling ability

# Same assay, conditions: 2 μM, versus Mito Tracker Green FM (100 nm)
row,SMILES,colocalization coefficient
1,CCN(CC)c1ccc2nc3c4ccc(-c5ccc(C(N)=O)cc5)cc4c(=O)cc-3oc2c1 [dye 3a],0.94
2,CCN(CC)c1ccc2nc3c4ccc(-c5ccc(C(=O)NC)cc5)cc4c(=O)cc-3oc2c1 [dye 3b],0.88
3,CCN(CC)c1ccc2nc3c4ccc(-c5ccc(C(=O)N(C)C)cc5)cc4c(=O)cc-3oc2c1 [dye 3c],0.94
4,CCN(CC)c1ccc2nc3c4ccc(-c5ccc6c(c5)CC(=O)N6)cc4c(=O)cc-3oc2c1 [dye 3d],0.96
5,CCN(CC)c1ccc2nc3c4ccc(-c5ccc6c(c5)CCC(=O)N6)cc4c(=O)cc-3oc2c1 [dye 3e],0.92
